Laboratory results taken from patent US20230233690A1, “ANDROGEN RECEPTOR PROTEIN DEGRADERS” (THE REGENTS OF THE UNIVERSITY OF MICHIGAN, priority 2020, published 2023).

Biological target: T1, AR protein (Homo sapiens, UniProt P10275)
T1 construct: endogenous in cells; host or cells: VCaP
T1 sequence (P10275 1-920): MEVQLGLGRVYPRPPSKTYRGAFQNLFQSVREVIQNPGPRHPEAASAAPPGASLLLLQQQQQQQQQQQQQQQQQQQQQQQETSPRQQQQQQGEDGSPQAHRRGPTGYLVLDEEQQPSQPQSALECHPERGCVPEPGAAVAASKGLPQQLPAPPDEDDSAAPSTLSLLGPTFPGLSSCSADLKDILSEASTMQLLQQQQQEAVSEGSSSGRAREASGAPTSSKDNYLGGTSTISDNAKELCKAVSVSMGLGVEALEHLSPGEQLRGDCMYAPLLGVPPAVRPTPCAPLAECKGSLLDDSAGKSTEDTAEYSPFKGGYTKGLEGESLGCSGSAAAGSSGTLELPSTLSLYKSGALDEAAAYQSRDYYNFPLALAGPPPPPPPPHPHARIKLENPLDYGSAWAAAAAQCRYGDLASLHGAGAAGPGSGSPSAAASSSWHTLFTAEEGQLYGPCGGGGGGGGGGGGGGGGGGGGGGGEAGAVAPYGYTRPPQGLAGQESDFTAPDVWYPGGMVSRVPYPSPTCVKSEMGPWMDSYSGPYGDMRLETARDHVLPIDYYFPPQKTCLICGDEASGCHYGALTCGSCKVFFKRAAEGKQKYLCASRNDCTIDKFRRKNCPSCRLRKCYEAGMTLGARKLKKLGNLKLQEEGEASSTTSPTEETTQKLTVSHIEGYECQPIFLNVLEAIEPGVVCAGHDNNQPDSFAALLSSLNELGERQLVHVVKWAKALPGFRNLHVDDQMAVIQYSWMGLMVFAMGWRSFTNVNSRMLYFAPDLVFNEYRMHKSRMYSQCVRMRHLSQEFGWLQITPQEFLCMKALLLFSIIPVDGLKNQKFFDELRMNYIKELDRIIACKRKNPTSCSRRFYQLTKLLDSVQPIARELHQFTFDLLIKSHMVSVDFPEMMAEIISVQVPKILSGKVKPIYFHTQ
Assay: Western blotting of AR protein degradation in VCaP cells
Format: cell-based
Conditions: for AR protein degradation VCap 10 nM / AR protein degradation VCap 100 nM: 24 hr treatment
Description: The treated cells were lysed with RIPA buffer. […] GAPDH was used as a loading control.
Bands were quantified with ImageJ software. The relative numbers of each band obtained from normalization with its corresponding GAPDH level were compared with Prism 8 software. The DC50 values were produced from Prism 8, and the DC90 values were calculated with an equation=Bottom+(Top−Bottom)/(1+10^((Log EC50−X)*HillSlope) based on DC50 and Hillslope values.

Row | SMILES | % AR protein degradation in VCaP Cells (0.001 μM) | % AR protein degradation in VCaP Cells (0.01 μM) | % AR protein degradation in VCaP Cells (0.1 μM) | % AR protein degradation in VCaP Cells (1 μM) | AR protein degradation VCap 10 nM | AR protein degradation VCap 100 nM
1 | N#Cc1ccc(O[C@H]2CC[C@H](NC(=O)c3ccc(NCCCCNc4ccc5c(c4)C(=O)N(C4CCC(=O)NC4=O)C5=O)cc3)CC2)cc1Cl (some centres unmarked) [compound 210, N-((1r,4r)-4-(3-chloro-4-cyanophenoxy)cyclohexyl)-4-((4-((2-(2,6-dioxopiperidin-3-yl)-1,3-dioxoisoindolin-5-yl)amino)butyl)amino)benzamide] | 43% | 70% | 55% | 38% | – | –
2 | CN(c1ccc(C#N)c(Cl)c1)[C@H]1CC[C@H](NC(=O)c2ccc(N3CCN(C4CN(c5ccc6c(c5)C(=O)N(C5CCC(=O)NC5=O)C6=O)C4)CC3)cc2)CC1 (some centres unmarked) [Cpd. No. 31, N-((1r,4r)-4-((3-chloro-4-cyanophenyl)(methyl)amino)cyclohexyl)-4-(4-(1-(2-(2,6-dioxopiperidin-3-yl)-1,3-dioxoisoindolin-5-yl)azetidin-3-yl)piperazin-1-yl)benzamide] | – | – | – | – | A (>90% degradation (24 hr treatment)) | A (>90% degradation (24 hr treatment))
3 | C[C@H]1C[C@H](NC(=O)c2ccc(N3CCN(CC4CCN(c5ccc6c(c5)C(=O)N(C5CCC(=O)NC5=O)C6=O)CC4)CC3)cc2)CC[C@H]1Oc1ccc(C#N)c(Cl)c1 (some centres unmarked) [compound 24] | – | – | – | – | A (>90% degradation (24 hr treatment)) | A (>90% degradation (24 hr treatment))
4 | CC(O)(CS(=O)(=O)c1ccc(N2CCN(C3CCN(c4ccc5c(c4)C(=O)N(C4CCC(=O)NC4=O)C5=O)CC3)CC2)cc1)C(=O)Nc1ccc(C#N)c(C(F)(F)F)c1 (centres unmarked) [compound 241, N-(4-cyano-3-(trifluoromethyl)phenyl)-3-((4-(4-(1-(2-(2,6-dioxopiperidin-3-yl)-1,3-dioxoisoindolin-5-yl)piperidin-4-yl)piperazin-1-yl)phenyl)sulfonyl)-2-hydroxy-2-methylpropanamide] | 7% | 13% | −2% | 27% | – | –
5 | CC1(C)C(=O)N(c2ccc(C#N)c(C(F)(F)F)c2)C(=S)N1c1ccc(C(=O)N2CCN(C3CCN(c4ccc5c(c4)C(=O)N(C4CCC(=O)NC4=O)C5=O)CC3)CC2)c(F)c1 (centres unmarked) [compound 242, 4-(3-(4-(4-(1-(2-(2,6-dioxopiperidin-3-yl)-1,3-dioxoisoindolin-5-yl)piperidin-4-yl)piperazine-1-carbonyl)-3-fluorophenyl)-4,4-dimethyl-5-oxo-2-thioxoimidazolidin-1-yl)-2-(trifluoromethyl)benzonitrile] | 14% | 6% | 18% | 31% | – | –
6 | N#Cc1ccc(N[C@H]2CC[C@H](NC(=O)c3ccc(N4CCC(N5CCN(c6ccc7c(c6)C(=O)N(C6CCC(=O)NC6=O)C7=O)CC5)CC4)cc3)CC2)cc1Cl (some centres unmarked) [compound 229, N-((1r,4r)-4-((3-chloro-4-cyanophenyl)amino)cyclohexyl)-4-(4-(4-(2-(2,6-dioxopiperidin-3-yl)-1,3-dioxoisoindolin-5-yl)piperazin-1-yl)piperidin-1-yl)benzamide] | 51% | 62% | 52% | 43% | – | –
7 | CN(c1ccc(C#N)c(Cl)c1)[C@H]1CC[C@H](NC(=O)c2ccc(N3CCN(C4CCN(c5ccc6c(c5)C(=O)N(C5CCC(=O)NC5=O)C6=O)CC4)CC3)cc2)CC1 (some centres unmarked) [compound 30] | – | – | – | – | A (>90% degradation (24 hr treatment)) | A (>90% degradation (24 hr treatment))

Continued, in another order:

Row | % AR protein degradation in VCaP Cells (0.001 μM) | % AR protein degradation in VCaP Cells (0.01 μM) | % AR protein degradation in VCaP Cells (0.1 μM) | % AR protein degradation in VCaP Cells (1 μM) | SMILES | AR protein degradation VCap 10 nM | AR protein degradation VCap 100 nM
8 | 22% | 36% | 34% | 43% | N#Cc1ccc(O[C@@H]2CCC[C@@H](NC(=O)c3ccc(N4CCC(N5CCN(c6ccc7c(c6)C(=O)N(C6CCC(=O)NC6=O)C7=O)CC5)CC4)cc3)CC2)cc1Cl (stereo partly drawn) [compound 227, N-((1R,4R)-4-(3-chloro-4-cyanophenoxy)cycloheptyl)-4-(4-(4-(2-(2,6-dioxopiperidin-3-yl)-1,3-dioxoisoindolin-5-yl)piperazin-1-yl)piperidin-1-yl)benzamide] | – | –
9 | 6% | 32% | 39% | 21% | N#Cc1ccc(O[C@H]2CC[C@H](NC(=O)c3ccc(N4CCN(CCNc5ccc6c(c5)C(=O)N(C5CCC(=O)NC5=O)C6=O)CC4)cc3)CC2)cc1Cl (some centres unmarked) [compound 218, N-((1r,4r)-4-(3-chloro-4-cyanophenoxy)cyclohexyl)-4-(4-(2-((2-(2,6-dioxopiperidin-3-yl)-1,3-dioxoisoindolin-5-yl)amino)ethyl)piperazin-1-yl)benzamide] | – | –
10 | 27% | 43% | 65% | 46% | N#Cc1ccc(O[C@H]2CC[C@H](NC(=O)c3ccc(NCCCCCCCCNc4ccc5c(c4)C(=O)N(C4CCC(=O)NC4=O)C5=O)cc3)CC2)cc1Cl (some centres unmarked) [compound 214, N-((1r,4r)-4-(3-chloro-4-cyanophenoxy)cyclohexyl)-4-((8-((2-(2,6-dioxopiperidin-3-yl)-1,3-dioxoisoindolin-5-yl)amino)octyl)amino)benzamide] | – | –
11 | 38% | 79% | 85% | 86% | N#Cc1ccc(O[C@H]2CC[C@H](NC(=O)c3ccc(N4CCN(CC5CN(c6ccc7c(c6)C(=O)N(C6CCC(=O)NC6=O)C7=O)C5)CC4)cc3)CC2)cc1Cl (some centres unmarked) [compound 224, N-((1r,4r)-4-(3-chloro-4-cyanophenoxy)cyclohexyl)-4-(4-((1-(2-(2,6-dioxopiperidin-3-yl)-1,3-dioxoisoindolin-5-yl)azetidin-3-yl)methyl)piperazin-1-yl)benzamide] | – | –
12 | 17% | 40% | 62% | 38% | N#Cc1ccc(O[C@H]2CC[C@H](NC(=O)c3ccc(NCCCCCCCNc4ccc5c(c4)C(=O)N(C4CCC(=O)NC4=O)C5=O)cc3)CC2)cc1Cl (some centres unmarked) [compound 213, N-((1r,4r)-4-(3-chloro-4-cyanophenoxy)cyclohexyl)-4-((7-((2-(2,6-dioxopiperidin-3-yl)-1,3-dioxoisoindolin-5-yl)amino)heptyl)amino)benzamide] | – | –
13 | 6% | 35% | 58% | 53% | N#Cc1ccc(O[C@H]2CC[C@H](NC(=O)c3ccc(NCCCCCCCCCNc4ccc5c(c4)C(=O)N(C4CCC(=O)NC4=O)C5=O)cc3)CC2)cc1Cl (some centres unmarked) [compound 215, N-((1r,4r)-4-(3-chloro-4-cyanophenoxy)cyclohexyl)-4-((9-((2-(2,6-dioxopiperidin-3-yl)-1,3-dioxoisoindolin-5-yl)amino)nonyl)amino)benzamide] | – | –
14 | 2% | 3% | 23% | 18% | N#Cc1ccc(O[C@H]2CC[C@H](NC(=O)c3ccc(N4CCC(N5CCN(c6ccc7c(c6)C(=O)N(C6CCC(=O)NC6=O)C7=O)CC5)CC4)cc3)C2)cc1Cl (stereo partly drawn) [compound 226, N-((1S,3S)-3-(3-chloro-4-cyanophenoxy)cyclopentyl)-4-(4-(4-(2-(2,6-dioxopiperidin-3-yl)-1,3-dioxoisoindolin-5-yl)piperazin-1-yl)piperidin-1-yl)benzamide] | – | –
